Data set [1] deals with SD rats. The experiment in a line: Pharmacodynamic study in rats OGTT model. To be noted: for OGTT Blood glucose levels AUC0-2 hr: SD rats, mean ± standard error. In kind it is in vivo, rat. How it is done: SD rats, male, aged 7-8 weeks, purchased from Zhejiang Weitonglihua Experimental Animal Technology Co. Ltd. are maintained in a special pathogen-free environment, with 4 rats in a single ventilation cage. Beddings and water in all cages are sterilized prior to use. All animals can freely obtain a standard certified commercial laboratory diet.
After the animals are adapted to the environment for one week, they are fasted for 16 hours in a metabolic cage, and randomly divided into different groups according to fasting blood glucose and body weight. The animals are administered with a drug or solvent (2 mL/kg), followed by immediately administration of 50% glucose solution (2 g/kg, 4 mL/kg), 2 hours after the administration of glucose solution, the feed is recovered, and blood samples are collected at 0 min, 15 min, 30 min, 45 min, 60 min, and 120 min for blood glucose testing. All values are expressed as average values. Statistical analysis is carried out using Graphpad Prism 6 double factor variance analysis and evaluated with Tukey's multiple comparison tests. P values less than 0.05 are considered to have statistical significance.

The nature of data set [2]: Hygroscopicity study by dynamic vapor sorption (DVS). In kind it is physicochemical. Particulars: 25° C. and 80% RH. The method, then: Dynamic Vapor Sorption (DVS) Method of the Present Invention
Instrument Model: […] Advantage-1 dynamic vapor adsorber
Test conditions: Sample (10-30 mg) is placed in the DVS sample tray for testing.
Detailed DVS parameters are as follows:
Balance: dm/dt=0.002%/min (shortest: 10 min, longest: 180 min)
RH (%) test step range: 0-95-0
Hygroscopicity evaluation and classification are as follows:
SMS DVS Advantage Dynamic Vapor Sorption Intrinsic

The nature of data set [3]: Solid stability test of crystal form A. In kind it is physicochemical. The method, then: Each part is placed at the bottom of a HPLC vial and spread into a thin layer. Samples placed in a constant temperature and constant humidity box at 60° C./75% RH and samples placed in a 92.5% RH dryer are sealed with a sealing film on the bottle mouth, and some small holes are made in the sealing film to ensure that the sample can be brought into full contact with the ambient air. Samples placed at 60° C., or under lights or shading conditions are tightly capped (wherein the samples under shading conditions are packaged with a tin foil paper).

Where [4] appears, read: Shading lights, test at the same time with the visible lights + ultraviolet lights group.
Setting [5] is: Shading lights, test at the same time with the visible lights group.
[6] abbreviates: Visible lights + Ultraviolet lights, illuminance reaches 200 W · hrs/m^2.
Where [7] appears, read: Visible lights, illuminance reaches 1.2E+06 Lux · hrs.

Molecules are shown by their SMILES.

Consider `CCOc1ccc(Cc2cc([C@@H]3O[C@H](SC)[C@@H](O)[C@H](O)[C@H]3O)ccc2Cl)cc1` [Sotagliflozin, reference compound], for which the OGTT Blood glucose levels AUC0-2 hr in data set [1] (3 mg/kg) turned out to be 1050 mmol/L/min.
Turning to `CCc1ccc([C@@H]2O[C@H](SC)[C@@H](O)[C@H](O)[C@H]2O)cc1Cc1ccc(C2=CCC(F)(F)CC2)cc1`, in data set [2], the Hygroscopicity classification entry is given as “almost no hygroscopicity”. Further, in data set [2], the “ΔW, weight gain caused by hygroscopicity” value was found to be 0.1483%. Also, the Crystal form entry is listed as “Crystal form A” in data set [3] (0 day); “Crystal form A” in data set [3] (60° C., 5 days); “Crystal form A” in data set [3] (60° C., 10 days); “Crystal form A” in data set [3] (60° C./75% RH, 1 months); “Crystal form A” in data set [3] (60° C./75% RH, 2 months); “Crystal form A” in data set [3] (60° C./75% RH, 3 months). Also, the Crystal form entry in data set [3] (92.5% RH, 5 days) is listed as “Crystal form A”; in data set [3] (92.5% RH, 10 days) it was “Crystal form A”; in data set [3] (setting [4]), “Crystal form A”; in data set [3] (setting [5]) it was “Crystal form A”; in data set [3] (setting [6]), “Crystal form A”; in data set [3] (setting [7]) it was “Crystal form A”. Further, the “Purity (area %)” value came out at 96.48 area % in data set [3] (0 day); 96.38 area % in data set [3] (60° C., 5 days); 96.41 area % in data set [3] (60° C., 10 days); 96.31 area % in data set [3] (60° C./75% RH, 1 months); 96.39 area % in data set [3] (60° C./75% RH, 2 months); 96.37 area % in data set [3] (60° C./75% RH, 3 months). The “Purity (area %)” value was 96.41 area % in data set [3] (92.5% RH, 5 days); 96.47 area % in data set [3] (92.5% RH, 10 days); 96.43 area % in data set [3] (setting [4]); 96.44 area % in data set [3] (setting [5]); 95.75 area % in data set [3] (setting [6]); 96.29 area % in data set [3] (setting [7]). In addition, the “Solid stability, conclusion” value in data set [3] (all tested conditions of Table 3) is “Conclusion: The crystal forms A of compound of formula (I) has good stability”. Besides, the OGTT Blood glucose levels AUC0-2 hr in data set [1] (1 mg/kg) was determined as 1070 mmol/L/min; in data set [1] (3 mg/kg), 977 mmol/L/min; in data set [1] (10 mg/kg), 881 mmol/L/min. For the same molecule, the “Effect on blood glucose level, AUC0-2hr, conclusion” value in data set [1] (rat OGTT, in 2 hours) was “effectively and significantly reduce the blood glucose level”.

For the origin of these results see patent US20220324897A1, “CRYSTAL FORM OF SGLT INHIBITOR AND APPLICATION THEREOF” (SHANDONG DANHONG PHARMACEUTICAL CO., LTD., priority 2019, published 2022).
